The test system of the assay is Naïve T cells from WT and KO mice. As to the kind of experiment: Th1 differentiation assay with PI3K/Akt pathway inhibitors, IFN-γ expression by flow cytometry. The format is cell-based, mouse. The note with it: Th1 conditions, all concentrations. As to the method: (A) Naïve T cells from WT and KO mice were cultured under Th1 conditions for three days in the presence of PI3K inhibitors (Akti, LY294002 and IC-87114), re-stimulated with PMA/Ionomycin and analyzed for IFNγ and CD25 expression. (B) Quantitation of A. p values were calculated using two-way ANOVA with Sidak's multiple comparisons test. p values are represented with the following symbols: *0.01-0.05, **0.001-0.01, ***<0.001. Data are representative of more than three experiments.
CD4 T cells from spleens and lymph nodes of naïve mice were purified by magnetic separation using the Miltenyi Biotec naïve CD4 T cell isolation kit (Cat#130-104-453). The purity of the final cell population was >90%. […] Cells were then harvested and analyzed by flow cytometry.
In order to determine whether the difference in Th1 polarization was actually due to the absence of PI3K modulation by TrIP, the Th1 differentiation assay was performed on WT and KO T cells with the addition of moderate concentrations of PI3K/Akt pathway inhibitors. […] At the end of culture, cells were re-stimulated with PMA/Ionomycin and evaluated by flow cytometry for IFN-γ expression. […]

For the molecule `Cc1ccccc1-n1c(Cn2cnc3c(N)ncnc32)nc2cccc(C)c2c1=O` [IC-87114], the “relative potency among the three inhibitors for IFN-γ production” value is “most potent inhibitor at all concentrations”.
